Experimental data as given in patent publication US11439148B2, “Pyrimidine derivatives” (SYNGENTA PARTICIPATIONS AG, priority 2017, dated 2022).
“And” between values parts separate entries of the source, which are not always exact repeats. Equal values may be shown once.

How the values were obtained:
Assay type in all cases: in vivo
[1] = test system: weed species BRAPL, COMBE, DIGSA, POLCO; assay: Adjuvant efficacy with mesotrione, glasshouse spray test, average over all species (BRAPL set); settings: mesotrione SC, mean over 30 and 60 g/ha, adjuvant 0.2% v/v (none in No Adjuvant rows), 21 days, Test 4, average of BRAPL
Description: The efficacy of adjuvants 1-12 as an adjuvant for the herbicide mesotrione was tested in a glasshouse against four weed species sown into standard soil in pots and cultivated under controlled conditions in a glasshouse (at 24/18° C. day/night; 16 hours light; 65% humidity). Mesotrione was added to the spray tank as a standard SC (suspension concentrate) formulation.
The spray tests were also carried out using mesotrione in conjunction with adjuvants 1-12. The adjuvants were added to the spray solution at a rate of 0.2% v/v unless otherwise stated. All spray solutions also contained 10% w/w of iso-Propanol. The weed species and their BBCH growth stage at spraying were Brachiaria platyphylla (BRAPP; growth stage 13-14) or Brachiaria plantaginea (BRAPL; growth stage 13-14), Commelina benghalensis (COMBE; growth stage 13), Digitaria sanguinalis (DIGSA; growth stage 14), and Polygonum convolvulus (POLCO; growth stage 13-14). Each spray test was replicated three times.
The test plants were then grown in a glasshouse under controlled conditions (at 24/18° C. day/night; 16 hours light; 65% humidity) and watered twice a day. The efficacy of the herbicide was assessed visually and expressed as a percentage of the leaf area killed. Samples were assessed at a time period of 21 days following application. […]

[2] = test system: Brachiaria plantaginea (BRAPL); assay: Adjuvant efficacy with mesotrione, glasshouse spray test; settings: mesotrione SC, mean over 30 and 60 g/ha and 3 replicates; adjuvant 0.2% v/v (none in No Adjuvant rows); % leaf area killed, 21 days after application; Test 4
[3] = test system: Commelina benghalensis (COMBE); assay: as above; settings: mesotrione SC, mean over 30 and 60 g/ha and 3 replicates; adjuvant 0.2% v/v (none in No Adjuvant rows); % leaf area killed, 21 days after application; Tests 2 and 4

Compound: CCCCCCCCCCCCCCCCOc1cc(OCCOCCOCCOCCOCCOCCOCCOCCOCCOCCOC)ncn1 [Adjuvant 8]
- Mean % Herbicidal Activity Average over all Species [1]: 72%
- Mean % Herbicidal Activity BRAPL [2]: 33%
- Mean % Herbicidal Activity COMBE [3]: 85% and 79%

Compound: CCCCCCCCCCCCOc1cc(OCCOCCOCCOCCOCCOCCOCCOC)ncn1 [Adjuvant 6]
- Mean % Herbicidal Activity COMBE [3]: 83%
